This data set can be described thus: Solubility of crystalline substance in the inhibitor (HPLC of saturated solution). It counts as physicochemical. The text has this: The mole fraction solubility of the crystalline substantially water-insoluble substance in the inhibitor (x^S1) is simply the number of moles of substance per mole of inhibitor present in a saturated solution of the substance in the inhibitor. As will be realized the equation above is derived for a two component system of a substance and an inhibitor. In those systems where the inhibitor contains more than one compound (for example in the case of a medium chain triglyceride comprising a mixture of triglycerides such as Miglyol 812N, or where a mixture of inhibitors is used) it is sufficient to calculate x^S1 in terms of the “apparent molarity” of the mixture of inhibitors. The apparent molarity of such a mixture is calculated for a mixture of n inhibitor components to be: [formula] • wherein: a, b . . . n are the weight fraction of each component in the inhibitor mixture (for example for component a this is %w/w component a/100); and • Mwa . . . Mwn is the molecular weight of each component a . . . n in the mixture. • x^S1 is then calculated as: [formula]
The mole-fraction solubility of the felodipine/Miglyol 812N (x^sl in Equation I) was determined by magnetically stirring an excess of crystalline felodipine (approx 2-5 times that required for a saturated solution) in Miglyol 812N (5-25 ml) at 350 rpm (protected from light and sealed under a nitrogen atmosphere) for 2 days at room temperature. The resulting mixture was filtered to remove solids (0.2 μm filter) and then analyzed using BPLC to determine the quantity of felodipine dissolved in the Miglyol 812N. […] Miglyol 812N is a mixture of approximately 60% C8-triglyceride (Mw 471) and 40% C10-triglyceride (Mw 555) and has a density of approximately 0.945 g/cm^3. Thus, the apparent molarity of Miglyol 812N is 945/(0.6*471+0.4*555)=1.9].

Where [1] appears, read: oil or lipid, thermodynamic from solid.

In brackets after ≈: the same amount, converted by molar mass. Like-named read-outs stand apart in the source and are kept apart here.

Take `CCOC(=O)C1=C(C)NC(C)=C(C(=O)OC)C1c1cccc(Cl)c1Cl` (centres unmarked) [felodipine]: where the note is “Miglyol 812N (medium chain triglyceride mixture), oil or lipid, thermodynamic from solid, room temperature, 2 days stirring, read-out: solubility in Miglyol 812N”, the solubility (in general, the dissolved amount per volume that the medium holds) at 2 days was determined as 69 mM (≈ 26.5 mg/mL).

As for `CCc1cccc(C)c1CNc1cc(C(N)=O)cn2c(C)c(C)nc12` [8-[(2-ethyl-6-methylbenzyl)amino]-2,3-dimethylimidazo[1,2-a]pyridine-6-carboxamide], the “mole fraction solubility in Miglyol 812N” value worked out at 0.00116 and the “mole fraction solubility in Miglyol 812N/1-decanol mixture” value came to 0.0103. Under setting [1], this compound yielded a solubility of 37 mM (≈ 12.4 mg/mL) and a solubility at 2 days of 2.2 mM (≈ 0.74 mg/mL).

The values above are taken from patent US20050009908A1, “Aqueous dispersion comprising stable nonoparticles of a water-insoluble active and an excipient like middle chain triglycerides (mct)” (priority 2001, published 2005).
